Assays:
Solubility = type: physicochemical
[1] = cited from earlier work

| SMILES | solubility in water (Solubility) | solubility in solvents [1] |
| --- | --- | --- |
| N=C(NCCCCCCNC(=N)NC(=N)Nc1ccc(Cl)cc1)NC(=N)Nc1ccc(Cl)cc1 [Chlorhexidine base] | low solubility in water |  |
| N=C(NCCCCCCNC(=N)NC(=N)Nc1ccc(Cl)cc1)NC(=N)Nc1ccc(Cl)cc1.O=C(O)[C@H](O)[C@@H](O)[C@H](O)[C@H](O)CO.O=C(O)[C@H](O)[C@@H](O)[C@H](O)[C@H](O)CO [chlorhexidine gluconate] |  | only soluble in methanol and acetone |
